Measured values as given in ChEMBL document CHEMBL3507680, “University of Dundee, Gates Library screen for HepG2 cell viability”.

Assay: Human HepG2 cell viability assay in 384 well format
Type: toxicity, cell-based
Design: dose 125 nL, time 70.5 hour; concentration not given beside the values
Conditions: HepG2 cells, read-out: Inhibition

Row | SMILES | cytotoxicity at 70.5 h [%]
1 | CCn1nc(C)c(-c2cncn2Cc2ccccc2CN(C)C)c1C | -3.79
2 | COCCc1noc(CN2C(=O)OC[C@@H]2C(C)C)n1 | 2.12
3 | O=C1CCC(C(=O)N(Cc2ccsc2)CC2CCCO2)=NN1 (stereo not given) | -0.382
4 | c1cnn(CCCO[C@@H]2CN(C3CCOCC3)[C@@H]3CCCO[C@@H]32)c1 | 4.39
5 | Cc1cc(NCc2cn(C)nc2-c2cccnc2)n(C)n1 | -2.96
6 | CCN(CC)S(=O)(=O)c1ccc2c(c1)N(Cc1ccncc1)C(=O)CS2 | -3.41
7 | c1ccc(OC2COC3(CCN(CC4CC4)CC3)C2)nc1 (stereo not given) | 2.65
8 | OC(COCc1cccs1)CN1CCc2c(ncn2C2CC2)C1 (stereo not given) | -2.16
9 | CC(=O)N1CCC(c2nnc3ccc(C(=O)NCC(C)C)cn23)C1 (stereo not given) | -12.8
10 | CCC1COCCN1C(=O)NCc1nccn1CC(C)C (stereo not given) | -15.6
11 | Cc1nc(CC(=O)N2CCC[C@H]2c2nc(C(C)C)no2)cs1 | -1.93
12 | CC(C(=O)NCc1ccc(N2CCCC2)nc1)S(C)(=O)=O (stereo not given) | 15.7
13 | CN(C)C[C@@H]1C[C@@H]2CN(C(=O)c3ccoc3)CC[C@@H]2N1CC1CC1 | 24
14 | c1ccc(CN2CCC(c3nccnc3-n3ccnc3)CC2)cc1 | -14.9
15 | CCOc1ccc(-c2ccnc(CC)n2)cc1C(=O)O | -7.1
16 | COc1ccc(-n2cc(CNC(=O)c3cscn3)nn2)cc1 | -17.7
17 | Cc1csc(C2CCCCN2C(=O)CCn2cncn2)n1 (stereo not given) | 33.9
18 | COc1ccc(CCC(=O)Nc2cccnc2N2CCCC2)cc1Br | -5.48
19 | Cc1noc(C)c1CC(=O)N1CCc2sccc2C1 | -4.18
20 | Cc1ccc(C(=O)NCC2CCCCO2)c(=O)[nH]1 (stereo not given) | -3.97
21 | O=C(c1cc(COc2ccc3c(c2)OCO3)[nH]n1)N1CCSCC1 | -0.532
22 | CCN1CCN(C2CCN(Cc3nnc(C(C)C)o3)CC2)C1=O | -7.93
23 | O=C(c1cnc(O)cn1)N1CCC(CN2CCOCC2)CC1 | -13.8

Row | SMILES | cytotoxicity at 70.5 h [%]
24 | Cn1ccnc1CN1CCN(Cc2ccc(C#N)cc2F)CC1 | -1.66
25 | CN(Cc1ccncc1)C1CCC[C@@H]2CN(c3ncccn3)C[C@H]12 (stereo not given in full) | -2.1
26 | O=S(=O)(Cc1ccccc1CN1CC[C@H](CO)[C@H](O)C1)c1ccccc1 | -7.73
27 | NS(=O)(=O)c1cccnc1Nc1c(Cl)cccc1Cl | 14
28 | Cc1cccc(-c2nc(N)nc3c2CN(C(=O)c2ccncn2)C3C)c1 (stereo not given) | -18.2
29 | COc1c(C2CCCN2Cc2noc(C)n2)c(C)nn1C (stereo not given) | 44.7
30 | C=C(C)CN(c1cn[nH]c1)S(=O)(=O)c1cccc(C#N)c1 | -5.38
31 | CSCC1CCN(C(=O)c2ccccc2NCc2cccnc2)C1 (stereo not given) | -8.12
32 | c1csc(CN2CC(c3nc(-c4cnccn4)no3)C2)c1 | -4.66
33 | Cc1cnn(CC(C)NCc2nc(-c3ccsc3)oc2C)c1 (stereo not given) | -8.91
34 | O=C([C@@H]1CC[C@@H]2[C@@H](CCN2Cc2ccoc2)O1)N1CCCC1 | -11.4
35 | CN1CCC(c2nccnc2Nc2cnccn2)CC1 | -0.843
36 | CN(CCCOc1ccccc1)C(=O)c1csc(-c2nnc[nH]2)n1 | -5.84
37 | COC(=O)[C@@H]1Cc2ncn(C(C)C)c2CN1S(=O)(=O)Cc1ccccc1 | -6.37
38 | Cc1ccc(C(CC(=O)O)NC(=O)CCc2cccs2)cc1 (stereo not given) | -1.09
39 | O=C(NCCc1nccs1)c1cn(CCN2CCNCC2)nn1 | -2.39
40 | O=C(NCCn1ccnc1)N1CCN(c2nccs2)CC1 | 16.8
41 | O=C(c1cccnc1)N1CCCC(Cc2nccs2)C1 (stereo not given) | -6.74
42 | O=C(CCCNC(=O)NCC1CCCO1)Nc1ccc(Cl)cc1 (stereo not given) | -8.55
43 | O=C1CSC(c2ccncc2)c2c(n(C3CCOCC3)[nH]c2=O)N1 (stereo not given) | 36.4
44 | O=C(CCn1cccn1)NCCOc1ccc2c(c1)OCO2 | -6.03
45 | COc1ccc(Cl)cc1-c1cc(NC(=O)CNC(=O)C2CC2)[nH]n1 | -7.16
46 | CCNC(=O)COc1cc(CC)c2c(C)nn(-c3ccc(C)cc3)c2n1 | -3.18

Row | SMILES | cytotoxicity at 70.5 h [%]
47 | O=C1CC(c2cccc(O)c2)c2c(c(C(=O)O)cn2-c2ccccc2)N1 (stereo not given) | 4.21
48 | c1cncc(CN2CCO[C@@H]3CN(Cc4ccoc4)CC[C@@H]3C2)c1 | -7.13
49 | CCc1nc2c(c(N(C)Cc3nncn3CCOC)n1)CCNCC2 | -8.26
50 | Cc1nc(C2CCCN(C(=O)CN3CCCC3=O)C2)sc1C (stereo not given) | -15.5
51 | Cc1ccc(OCC2CCCN(CC3CCOCC3)C2)cc1 (stereo not given) | 2.28
52 | O=C(CC1CCCO1)NCCc1ccc(Br)cc1F (stereo not given) | -5.5
53 | COc1ccc(-c2nc(CCNC(=O)NC3CCC(O)CC3)co2)cc1 (stereo not given) | 17.3
54 | Cn1cnnc1C1CCN(C(=O)CCCOc2ccccc2F)CC1 | -12.8
55 | Cc1cnc(N2CCC3(CCC(C(=O)NC(C)C)OC3)CC2)nc1 (stereo not given) | -2.25
56 | CN(Cc1cc(F)ccc1C#N)CC(C)(CO)CO | -4.66
57 | Cn1cc(N2CCC3(CCCN(C(=O)c4ccnn4C)C3)C2=O)cn1 (stereo not given) | -4.7
58 | Cc1ccnc(OC[C@]23COC[C@H]2CN(C(=O)C2=CCCCC2)C3)n1 | -11.5
59 | CCOc1ccc(C2CC(=O)Nc3c2c(=O)nc2sccn32)cc1 (stereo not given) | -31.7
60 | O=C(NCc1ccccc1CN1CCCCCC1)Nc1nncs1 | -5.79
61 | CCC(CNS(C)(=O)=O)Oc1ccccc1C (stereo not given) | -3.25
62 | COc1ncc(CN2C[C@@H]3C[C@@H](O)CN3C[C@@H]2Cc2ccccc2)cn1 | 18.8
63 | COc1ccc(-c2cc(C3(O)CCCC3)on2)cc1 | 1.51
64 | CNS(=O)(=O)CCCN(C)Cc1cc(C)ccc1OC | -13.2
65 | CN(CCc1ccncc1)CC1CCCN1c1cccnn1 (stereo not given) | 25.1
66 | O=S(=O)(NCC(O)c1cccs1)c1ccccc1Cl (stereo not given) | 11
67 | CC(=O)N1CCN(CCNS(=O)(=O)c2cc(F)ccc2C)CC1 | 4.62
68 | FC1(F)CCNCC12CCN(c1ncccn1)C2 (stereo not given) | -4.34
69 | CC(C)NC(=O)N1CCC2(CC1)Cc1ccccc1CNC2=O | -4.51

Row | SMILES | cytotoxicity at 70.5 h [%]
70 | COCCNC(=O)CCc1c(C)nn(-c2nc(C)c(C)c(=O)[nH]2)c1C | -1.63
71 | COc1ccc(-c2ccc(C(=O)N3CCC[C@@H]3CO)o2)cc1 | -13.9
72 | CC[C@@H](c1ccccc1)n1c(CN)n[nH]c1=O | -13.5
73 | CN(CCc1ccccc1)C(=O)CN1C(=O)OC[C@@H]1c1ccccc1 | 23.5
74 | FC(F)(F)c1ccnc(N2CCCC(N3CCOCC3)C2)c1 (stereo not given) | 9.74
75 | CC(CN1CCCCCC1)NCc1nncn1C1CCCCC1 (stereo not given) | -6.55
76 | COC(=O)CCC(=O)N1CCC2(CN(Cc3cccc(Cl)c3)C2)C1 | 6.9
77 | Cc1cc(C(=O)N2CCCC3(COCCN(CCN(C)C)C3)C2)no1 (stereo not given) | 1.65
78 | c1ccc(-n2nnnc2CNCc2ccc3c(c2)OCCO3)cc1 | -8.49
79 | CC(C)=CCN1C[C@H]2CC[C@@H]1CN(C(=O)CSc1ccncc1)C2 | -0.143
80 | Cn1cncc1-c1nnc([C@H]2CCN(CC3CCCCC3)C2)o1 | -1.28
81 | Cc1ccc(-c2cccc(-c3ccn(CCN4CCCC4)n3)c2)nn1 | -6.29
82 | CCC(Nc1ncccn1)c1cccnc1 (stereo not given) | 8.36
83 | O=C(NCCC1COc2ccccc2O1)c1ccc(N2CC(O)C2)nc1 (stereo not given) | -6.19
84 | Cc1ccc(CC(=O)N2CCCC(n3nc(C)cc3C)C2)cn1 (stereo not given) | -9.71
85 | COc1cccc(OCC(=O)N(C)c2cccnc2)c1 | 24
86 | Cc1ccc(N2C[C@H](C(=O)N3CCOCC3)[C@@H]3CCO[C@@H]3C2)nn1 | -11.3
87 | NC(=O)CCNCc1c(Cl)cccc1N1CCCC1 | -6.13
88 | COc1cccc(C2CCN2C(=O)c2cnccn2)c1 (stereo not given) | -2.61
89 | Cc1cccc(-c2noc(CN3CCC(c4ccn[nH]4)CC3)n2)c1 | -1.2
90 | O=C(O)c1cc(-c2cccnc2)cc(S(=O)(=O)N2CCCCCC2)c1 | -11.7
91 | Cc1[nH]ncc1CCCNC(=O)Nc1ccc(C#N)cc1 | -4.85
92 | O=C1CCC2(CCCN(c3ncc(Cl)cc3F)C2)CN1CC1CC1 (stereo not given) | -1.6

Row | SMILES | cytotoxicity at 70.5 h [%]
93 | Cc1ccc(CN(Cc2cc(=O)n3cccc(C)c3n2)C(C)C)o1 | -14.3
94 | Cc1nc(-c2ccccc2)sc1C(=O)NCCNc1ncccn1 | 1.41
95 | Cc1cc(C(=O)NCC2CCCC2)c(C)n1-c1cccnc1 | -6.04
96 | Cc1cccc(CN2CCc3ncnc(N4CCCC4)c3CC2)n1 | -2.78
97 | CCc1nc(CC)n(CC(=O)N(C)Cc2ccc(F)cc2)n1 | -4.65
98 | Cn1ccc2c(C(=O)NC3CN4CCC3CC4)cccc21 (stereo not given) | -32.2
99 | CCN1CCN(C)C(=O)C12CCN(Cc1ccsc1)CC2 | -13
100 | CCOCC1CN(C(=O)c2ccco2)Cc2cnn(C)c21 (stereo not given) | -2.81
101 | Cc1cc(C)cc(CN2CCCC2c2noc(C)n2)c1 (stereo not given) | 0.367
102 | COc1nc2ccccc2cc1CN1CCC(CNS(C)(=O)=O)C1 (stereo not given) | 0.512
103 | Cc1ccccc1-n1cc(C2=CCN(CCn3cc[nH]c3=O)CC2)cn1 | -6.71
104 | CC(NC(=O)Nc1cccnc1N1CCOCC1)c1ccccc1 (stereo not given) | -8.45
105 | Cc1cc(CNC(=O)c2cnoc2C)c(C)o1 | -12
106 | OC(CN(Cc1ccccc1)Cc1cscn1)c1cccs1 (stereo not given) | -2.62
107 | CC(C)(C)c1noc(CCC(=O)N(CC2CCOC2)C2CC2)n1 (stereo not given) | 2.82
108 | O=C(c1ccncc1F)N1CC2CC1(C(=O)N1CCCC1)C2 | -11.2
109 | CCN(CC)c1ccc(NC(=O)N2CCc3sccc3C2)cn1 | -2.76
110 | CCS(=O)(=O)N1CC[C@H]2OCC[C@@]2(C(=O)NC)C1 | -9.74
111 | C[C@@H]1CN(C(=O)c2c[nH]c(=O)c(Cl)c2)CC[C@@]1(O)C1CCOCC1 | -1.04
112 | O=C(O)C1(O)CCN(c2ccnc3c(C(F)(F)F)cccc23)CC1 | -25.6
113 | COc1cccc(CN2CCN(C(=O)Nc3nc(C)ns3)CC2=O)c1 | -0.713
114 | CCOc1ncnc2c1CCN(Cc1cccs1)CC2 | -8.1
115 | CCCc1cc(N2CCC(NCCc3ccc(O)cc3)CC2)nc(C)n1 | -4.92
